# Literature values in patent publication US20240139272A1, “USE OF A SPEARMINT EXTRACT FOR RETINA NEUROTROPHISM” (KEMIN INDUSTRIES, INC., priority 2022, published 2024).
# Like-named read-outs stand apart in the source and are kept apart here.
# System: male Wistar rats
# Conditions: for carrageenan-induced increase in paw volume (FIG. 1): 3 and 6 hours, spearmint extract at all doses, RA at the high dose (50 mg/kg), indomethacin 10 mg/kg
Structure (SMILES),"paw volume increase compared to baseline (15 mg/kg intraperitoneal, 3 hours) [%]","paw volume increase compared to baseline (15 mg/kg intraperitoneal, 6 hours) [%]","paw volume increase compared to baseline (50 mg/kg intraperitoneal, 3 hours) [%]","paw volume increase compared to baseline (50 mg/kg intraperitoneal, 6 hours) [%]",carrageenan-induced increase in paw volume (FIG. 1),"paw volume increase compared to baseline (10 mg/kg intraperitoneal, 3 hours post-injection of carrageenan) [%]","paw volume increase compared to baseline (10 mg/kg intraperitoneal, 6 hours post-injection of carrageenan) [%]"
O=C(/C=C/c1ccc(O)c(O)c1)O[C@H](Cc1ccc(O)c(O)c1)C(=O)O [rosmarinic acid],20,10,7,5,substantially attenuated,–,–
COc1ccc2c(c1)c(CC(=O)O)c(C)n2C(=O)c1ccc(Cl)cc1 [Indomethacin],–,–,–,–,substantially attenuated,6,3
